Laboratory results taken from US8183364B2, “Substituted porphyrins” (Duke University, priority 2004, dated 2012).

Experiments:
[1] = given intravenously; cited from earlier work
[2] = test system: SOD-deficient JI132 E. coli; experiment: Aerobic growth of SOD-deficient E. coli; assay type: cell-based
Description: Aerobic growth of E. coli. Bacterial strains of E. coli used were wild type AB1157 (F-thr-1 leu-1 proA2 his-4 argE3 thr-1 lacY1 galK2 rpsL supE44 ara-14 xyl-15 mtl-1 tsx-33) and SOD-deficient JI132 (same as AB1157 plus (sodA::mudPR13)25 (sodB-kan)1-Δ2. Culture media were prepared as follows. M9 medium: 6 g/L Na2HPO4, 3 g/L KH2PO4, 0.5 g/L NaCl, 1 g/L NH4Cl, 2 mM MgSO4, 0.1 mM CaCl2, adjusted to pH 7.4 with NaOH, and supplemented with 0.2% glucose, 3 mg/L each of D-panthotenic acid and thiamine. M9CA medium contained M9 medium plus 0.2% casamino acids. 5-amino acid (5AA) minimal medium contained M9 medium plus 0.5 mM each of threonine, leucine, histidine, proline and arginine (Faulkner et al, J. Biocl. Chem. 269:23471 (1994)).
AB 1157 and 31132 were precultured overnight aerobically in M9CA medium at 37° C. and were then diluted to 3×10^7 cells/mL into 5 mL M9CA medium. JI132 was precultured in the presence of 20 μg/mL chloramphenicol and 500 μg/mL kanamycin. When the cells are transferred from M9CA medium to 5AA minimal medium cultures were first centrifuged and washed twice with the 5AA medium before final dilution in it. The centrifugation was conducted at room temperature to avoid temperature shocks. Cultures without and with Mn porphyrins (0.1 to 30 μM) were grown aerobically in 5 mL volume in test tubes in a thermostated orbital shaker (45° angle, 200 rpm) at 37° C.). Rates of growth were followed turbidimetrically at 700 nm to minimize interference from the absorbance of test compounds.

[3] = stroke model; cited from earlier work
[4] = Thin-layer chromatography on silica gel (retention factor Rf, lipophilicity); assay type: physicochemical; details: silica gel TLC, KNO3-saturated H2O/H2O/acetonitrile = 1/1/8
Description: Uv/vis spectra of porphyrin ligands and their Mn complexes were taken on a Shimadzu UV-2501-PC spectrophotometer at 25° C. Thin-layer chromatography of ligands and Mn complexes was done using silica gel plates with KNO3satH2O/H2O/acetonitrile=1/1/8.
Thin-layer chromatography. All new methoxyporphyrins are more lipophilic than MnTE-2-PyP^5+ and MnTDE-2-ImP^5+.

[5] = Catalysis of O2.^− dismutation by pulse radiolysis; assay type: biochemical; details: pulse radiolysis, pH 7.8, (22 ± 1) °C; kcat ±30%
Description: Catalysis of O2.^− dismutation. The catalytic rate constants for the O2.^− dismutation were determined by pulse radiolysis in 0.05 M phosphate buffer (pH 7.8) at (22±1)° C. as previously described (Batinic-Haberle et al, Inorg. Chem. 40:726 (2001)). In the present study 10 mM formate was used as a scavenger for H. atoms and .OH radicals, which leads first to production of CO2.^− radicals and then to O2.^− radicals. This system is known to lead to conversion of all primary radicals of water radiolysis into O2.^−.
Catalysis of O2.^− dismutation. Pulse radiolysis was used to assess the SOD-like activities of the Mn porphyrins studied. The initial concentration of O2.^− produced by the pulse was about 27 μM, and the concentration of the Mn porphyrin was between 0.5 and 5 μM. The dismutation of O2.^− was followed at 280 nm. The catalytic rate constant was determined from the linear dependence of kobs upon the concentration of the catalyst (Batinic-Haberle et al, Inorg. Chem. 40:726 (2001)). All the new compounds have high O2.^− dismuting ability. The magnitude of the catalysis is due to the interplay of the electron-withdrawing effects of quaternized ortho pyridyl or di-ortho imidazolyl groups, favorable electrostatics, and the solvation of the metal site.

[6] = Oxidative degradation in the presence of ascorbic acid under aerobic conditions; assay type: physicochemical; details: pH 7.8 (0.05 M tris buffer)
Description: Under these conditions porphyrins underwent oxidative degradation. As previously observed (Batinic-Haberle et al, J. Chem. Soc., Dalton Trans., pgs. 2689-2696 (2002)), those porphyrins that are of more positive E1/2 are stabilized in +2 oxidation state and are less prone to oxidative damage. Accordingly, 27% and 24% of MnTE-2-PyP^5+ and MnTMOE-2-PyP^5+ undergo degradation within 2 hours, but only 2% of MnTM,MOE-2-ImP^5+ and MnTDMOE-2-ImP^5+ and 3% of MnTDE-2-ImP^5+.

[7] = Electrochemistry: cyclic voltammetry of the Mn(III)/Mn(II) redox couple; assay type: physicochemical
Description: Electrochemistry. Measurements were performed on a CH Instruments Model 600 Voltammetric Analyzer (Spasojevic and Batinic-Haberle, Inorg. Chim. Acta. 317:230-242 (2001), Batinic-Haberle et al, J. Biol. Chem. 273:24521-24528 (1998), Batinic-Haberle et al, Inorg. Chem. 38:4011-4022 (1999)). A three-electrode system in a small volume cell (0.5 mL to 3 mL), with a 3 mm-diameter glassy carbon button working electrode (Bioanalytical Systems), plus the Ag/AgCl reference and Pt auxiliary electrodes was used. Argon-purged solutions contained 0.05 M phosphate buffer, pH 7.8, 0.1 M NaCl, and 0.5 mM metalloporphyrin. The scan rates were 0.01-0.5 V/s, typically 0.1 V/s. The potentials were standardized against the potassium ferrocyanide/ferricyanide (Kolthof and Tomsicek, J. Phys. Chem. 39:945 (1935)) and/or against MnTE-2-PyP^5+ (Spasojevic and Batinic-Haberle, Inorg. Chim. Acta. 317:230-242 (2001), Batinic-Haberle et al, J. Biol. Chem. 273:24521-24528 (1998), Batinic-Haberle et al, Inorg. Chem. 38:4011-4022 (1999)).
Electrochemistry. All cyclic voltammograms, ascribed to the Mn(III)/Mn(II) redox couple, are reversible. The E1/2 of di-ortho ethylimidazolylporphyrin, MnTDE-2-ImP^5+ is 118 mV more positive than of ortho ethylpyridylporphyrin, MnTE-2-PyP^5+ (+228 mV vs NHE), as a consequence of charge delocalization. A similar difference of 114 mV was seen between their methoxyethyl analogues. Mn porphyrins bearing N-pyridyl substituents of the same length, MnTnBu-PyP^5+ and MnTMOE-2-PyP^5+, have nearly identical E1/2 of +254 and +251 mV vs NHE, which is 26 and 23 mV higher than that of MnTE-PyP^5+.

Structure (SMILES): CCn1cc[n+](CC)c1-c1c2nc(c(-c3n(CC)cc[n+]3CC)c3ccc([n-]3)c(-c3n(CC)cc[n+]3CC)c3nc(c(-c4n(CC)cc[n+]4CC)c4ccc1[n-]4)C=C3)C=C2.[Mn+3] [MnTDE-2-ImP^5+, Mn(III) 5,10,15,20-tetrakis[N,N′-diethylimidazolium-2-yl]porphyrin]
- passing the spinal cord blood barrier compared to MnTE-2-PyP^5+ [1]: less effective
- protectiveness in spinal cord injury compared to MnTE-2-PyP^5+ [1]: lacks protectiveness
- protection of SOD-deficient E. coli ([2]; M9CA medium, 1 μM): low protection
- protection of SOD-deficient E. coli ([2]; M9CA medium, 3 μM): ineffective
- protection of SOD-deficient E. coli ([2]; M9CA medium, 30 μM): either much higher or near full protection
- facilitation of aerobic growth of SOD-deficient E. coli, dependence on concentration ([2]; M9CA medium, 1-30 μM): concentration-dependent manner
- protection of E. coli from oxidative stress ([2]; ≦3 μM levels (FIG. 10: 5AA minimal medium)): the least effective
- neurotoxicity lower than the pyridyl compound (MnTE-2-PyP^5+) [3]: 16 fold
- Rf (compound path/solvent path), metal-free porphyrin (in parenthesis) ([4]; metal-free ligand of the named Mn porphyrin): 0.23
- Rf (compound path/solvent path), Mn complex [4]: 0.17
- log kcat for O2^− dismutation [5]: 7.83
- degradation within 2 hours [6]: 3%
- E1/2 difference of imidazolyl porphyrin vs analogous pyridyl porphyrin [7]: more than 100 mV
- Metal-centered redox potential E1/2 ([7]; Mn(III)/Mn(II), 0.1 M NaCl, 0.05 M phosphate buffer, pH 7.8, ±3 mV): +346 mV vs NHE
- E1/2 more positive / higher than that of MnTE-2-PyP^5+ ([7]; difference vs MnTE-2-PyP^5+ (+228 mV vs NHE)): 118 mV
